Experimental data reported in US20220351806A1, “Biomarker Panels for Guiding Dysregulated Host Response Therapy” (Endpoint Health Inc., priority 2019, published 2022).

Tested on: sepsis patients
Assay: VANISH trial survival analysis, hydrocortisone vs placebo, by patient subtype classifier
Assay type: in vivo, human
Set-up: mortality reduction in the placebo group in comparison to the hydrocortisone group / Mortality rate: concentration or dose not given beside the values
Conditions: for Mortality reduction: Hydro vs Placebo; for hydro_alive / hydro_dead / mr: SS.B2 Model; for mr: 28-day mortality reduction hydro vs placebo; for Alive / Dead / Mortality rate / Survival rate: Hydro group
Excerpt: The test expression data from each trial were normalized by the platform normalization matrix described above^13 so that the test data were more consistent with the training data. The classifiers (e.g., the Full Model, the SS Model, the S Model, and the P Model) were then applied to the normalized data such that the patients were classified into A, B, and C subtypes. […] Therefore, each sample in the target samples was normalized independently with the normalization matrix of the sample array platform.
Survival and mortality rates were calculated at day 28 because survival and mortality labels at other time points were not available. […] Binomial and Chi-squared with continuity correction tests were used to test for the significance of these differences.
In one example, previously identified subtypes of sepsis patients were used to tune the model to identify these type A and B patients. Two distinct sepsis response signatures (SRS1 and SRS2) were identified in five public studies (E-MTAB-4421, E-MTAB-4451, E-MTAB-5273, E-MTAB-5274, and E-MTAB-7581), where HumanHT-12 v4 BeadChip were used to generate the gene expression profiles of the patient samples. The processed data of those five studies were downloaded and processed using R programming language and software environment for statistical analysis (version 3.6.3). The Bioconductor annotation package, illuminaHumanv4.db (version 1.26.0), was used to annotate microarray probes and expression levels of genes were determined by each individual probe or mean of probes belonging to the same gene. In order to remove cohort biases, the Bioconductor package, limma (version 3.42.2), was used to remove batch effects. Using ss.b2 panel genes, subtype A, B, and C scores were calculated by geometric mean of up/down genes.
To build the classifier, we defined E-MTAB-4421, E-MTAB-4451, E-MTAB-5273, and E-MTAB-5274 as the training dataset and VANISH (E-MTAB-7581) as the testing dataset. We used features (subtype A, B, and C scores) and class labels (SRS1 vs SRS2) in the training dataset to build a machine-learned classifier based on support-vector machine (SVM) method. SVM is a supervised machine learning method for classification analysis. The algorithm finds a single or a set of hyperplanes that maximize the margin among subtype A, B, and C scores. In order to capture non-linear data, the kernel function was used. R package e1071 was used to build the SVM classifier with following parameters: method=“C-classification”, kernal=“radial”, gamma=0.1, and cost=10.
The accuracy of the classifiers was evaluated by Leave-One-Out (LOO) cross-validation over the training dataset. Also the classifier was applied to 117 controlled samples from VANISH trial.
In addition to the SVM-method, thresholds can be employed to scores in order to define A vs. B labels. […] Therefore we applied a heuristic threshold (threshold=0) to subtype A and B scores to classify SRS1-like and SRS2-like in VANISH: SRS2-like label was assigned to samples with subtype A score >0 and subtype B score <0 and SRS1-like label was assigned to the rest of samples.
Besides the heuristic threshold, we also derived the thresholds for subtype A and B scores using the training dataset. Same as the SVM method, we defined E-MTAB-4421, E-MTAB-4451, E-MTAB-5273, and E-MTAB-5274 as the training dataset and VANISH (E-MTAB-7581) as the testing dataset.

[1] = class A, A score cutoff 0.0000, B score cutoff 0.0000, accuracy in training set 0.74830, 76.07% of patients
[2] = class A, A score cutoff 0.0000, B score cutoff 0.0000, accuracy in training set 0.74830, 76.92% of patients
[3] = class A, A score cutoff 0.0000, B score cutoff 0.0000, accuracy in training set 0.75283, 76.92% of patients
[4] = class A, A score cutoff 0.0000, B score cutoff 0.0000, accuracy in training set 0.75283, 82.91% of patients
[5] = class A, A score cutoff 0.0000, B score cutoff 0.0000, accuracy in training set 0.76871, 62.39% of patients
[6] = class A, A score cutoff 0.0000, B score cutoff 0.0000, accuracy in training set 0.76871, 76.92% of patients
[7] = class A, A score cutoff −0.0406, B score cutoff 0.1067, accuracy in training set 0.79592, 58.12% of patients
[8] = class A, A score cutoff −0.0406, B score cutoff 0.1067, accuracy in training set 0.79592, 74.36% of patients
[9] = class A, A score cutoff −0.1277, B score cutoff 0.3630, accuracy in training set 0.83673, 60.68% of patients
[10] = class A, A score cutoff −0.1277, B score cutoff 0.3630, accuracy in training set 0.83673, 70.09% of patients
[11] = class A, A score cutoff −0.2664, B score cutoff 0.3179, accuracy in training set 0.82483, 58.12% of patients
[12] = class A, A score cutoff −0.2664, B score cutoff 0.3179, accuracy in training set 0.82483, 60.68% of patients
[13] = class B, A score cutoff 0.0000, B score cutoff 0.0000, accuracy in training set 0.74830, 23.08% of patients
[14] = class B, A score cutoff 0.0000, B score cutoff 0.0000, accuracy in training set 0.74830, 23.93% of patients
[15] = class B, A score cutoff 0.0000, B score cutoff 0.0000, accuracy in training set 0.75283, 17.09% of patients
[16] = class B, A score cutoff 0.0000, B score cutoff 0.0000, accuracy in training set 0.75283, 23.08% of patients
[17] = class B, A score cutoff 0.0000, B score cutoff 0.0000, accuracy in training set 0.76871, 23.08% of patients
[18] = class B, A score cutoff 0.0000, B score cutoff 0.0000, accuracy in training set 0.76871, 37.61% of patients
[19] = class B, A score cutoff −0.0406, B score cutoff 0.1067, accuracy in training set 0.79592, 25.64% of patients
[20] = class B, A score cutoff −0.0406, B score cutoff 0.1067, accuracy in training set 0.79592, 41.88% of patients
[21] = class B, A score cutoff −0.1277, B score cutoff 0.3630, accuracy in training set 0.83673, 29.91% of patients
[22] = class B, A score cutoff −0.2664, B score cutoff 0.3179, accuracy in training set 0.82483, 39.32% of patients
[23] = class B, A score cutoff −0.2664, B score cutoff 0.3179, accuracy in training set 0.82483, 41.88% of patients
[24] = VANISH trial, day 28, Full Model, Total
[25] = VANISH trial, day 28, Full Model, subtype A
[26] = VANISH trial, day 28, Full Model, subtype B

C[C@]12CCC(=O)C=C1CC[C@@H]1[C@@H]2[C@@H](O)C[C@@]2(C)[C@H]1CC[C@]2(O)C(=O)CO [Hydro, hydrocortisone]
Mortality reduction (1-(lower/higher mortality rate), VANISH trial, day 28, Full Model, Total): 33.0%
Mortality reduction (1-(lower/higher mortality rate), VANISH trial, day 28, Full Model, subtype A): 64.6%
Mortality reduction (1-(lower/higher mortality rate), VANISH trial, day 28, Full Model, subtype B): 35.2%
Mortality reduction (1-(lower/higher mortality rate), VANISH trial, day 28, Full Model, subtype C): 56.8%
Mortality reduction (1-(lower/higher mortality rate), VANISH trial, day 28, Full Model, subtypes CA): 60.6%
Mortality reduction (1-(lower/higher mortality rate), VANISH trial, day 28, P Model, Total): 33.0%
Mortality reduction (1-(lower/higher mortality rate), VANISH trial, day 28, P Model, subtype A): 77.6%
Mortality reduction (1-(lower/higher mortality rate), VANISH trial, day 28, P Model, subtype B): 9.7%
Mortality reduction (1-(lower/higher mortality rate), VANISH trial, day 28, P Model, subtypes CA): 56.5%
Mortality reduction (1-(lower/higher mortality rate), VANISH trial, day 28, SS Model, Total): 33.0%
Mortality reduction (1-(lower/higher mortality rate), VANISH trial, day 28, SS Model, subtype A): 86.0%
Mortality reduction (1-(lower/higher mortality rate), VANISH trial, day 28, SS Model, subtype B): 20.0%
Mortality reduction (1-(lower/higher mortality rate), VANISH trial, day 28, SS Model, subtype C): 4.0%
Mortality reduction (1-(lower/higher mortality rate), VANISH trial, day 28, SS Model, subtypes CA): 42.2%
Mortality reduction (1-(lower/higher mortality rate), VANISH trial, day 28, SS.B2 Model (SVM), Total): 33.0%
Mortality reduction (1-(lower/higher mortality rate), VANISH trial, day 28, SS.B2 Model (SVM), type A (SRS2-like)): 77.3%
Mortality reduction (1-(lower/higher mortality rate), VANISH trial, day 28, SS.B2 Model (SVM), type B (SRS1-like)): 24.2%
Mortality reduction (VANISH trial, day 28, S Model, subtype C): Hydro
Mortality reduction (VANISH trial, day 28, S Model, subtypes CA): Hydro
hydro_alive [1]: 29
hydro_dead [1]: 13
mr [1]: 3.8%
hydro_alive [2]: 29
hydro_dead [2]: 13
mr [2]: 5.8%
hydro_alive [3]: 29
hydro_dead [3]: 13
mr [3]: 5.8%
hydro_alive [4]: 32
hydro_dead [4]: 15
mr [4]: 12.3%
hydro_alive [5]: 21
hydro_dead [5]: 12
mr [5]: 3.8%
hydro_alive [6]: 29
hydro_dead [6]: 13
mr [6]: 5.8%
hydro_alive [7]: 21
hydro_dead [7]: 12
mr [7]: 2.1%
hydro_alive [8]: 29
hydro_dead [8]: 13
mr [8]: 0.5%
hydro_alive [9]: 25
hydro_dead [9]: 11
mr [9]: 17.7%
hydro_alive [10]: 28
hydro_dead [10]: 13
mr [10]: 0.0%
hydro_alive [11]: 23
hydro_dead [11]: 11
mr [11]: 15.4%
hydro_alive [12]: 24
hydro_dead [12]: 12
mr [12]: 10.3%
hydro_alive [13]: 7
hydro_dead [13]: 9
mr [13]: 83.8%
hydro_alive [14]: 7
hydro_dead [14]: 9
mr [14]: 85.2%
hydro_alive [15]: 4
hydro_dead [15]: 7
mr [15]: 82.5%
hydro_alive [16]: 7
hydro_dead [16]: 9
mr [16]: 83.8%
hydro_alive [17]: 7
hydro_dead [17]: 9
mr [17]: 83.8%
hydro_alive [18]: 15
hydro_dead [18]: 10
mr [18]: 86.8%
hydro_alive [19]: 7
hydro_dead [19]: 9
mr [19]: 87.3%
hydro_alive [20]: 15
hydro_dead [20]: 10
mr [20]: 79.2%
hydro_alive [21]: 8
hydro_dead [21]: 9
mr [21]: 79.0%
mr (class B, A score cutoff −0.1277, B score cutoff 0.3630, accuracy in training set 0.83673, 39.32% of patients): 83.3%
hydro_alive [22]: 12
hydro_dead [22]: 10
mr [22]: 81.7%
hydro_alive [23]: 13
hydro_dead [23]: 11
mr [23]: 82.5%
mortality reduction in the placebo group in comparison to the hydrocortisone group (VANISH trial, 28-day, Type-A (SRS2-like) patients by SVM classifier on ss.b2 scores): 75.5%
Alive [24]: 36
Dead [24]: 22
Mortality rate [24]: 37.9%
Survival rate [24]: 62.1%
Alive [25]: 9
Dead [25]: 8
Mortality rate [25]: 47.1%
Survival rate [25]: 52.9%
Alive [26]: 16
Dead [26]: 6
Mortality rate [26]: 27.3%
Survival rate [26]: 72.7%
